Measurements published in US9718787B2, “Poly (ADP-ribose) polymerase inhibitor” (CHENGDU DI'AO PHARMACEUTICAL GROUP CO., LTD., priority 2011, dated 2017).
Blank lines part the entries; values can stand above or below the molecule they belong to.

Tests used:
[1] = tested on: lung adenocarcinoma cell line SW-1271; test: Cell proliferation inhibition assay, SW-1271 (Cell Titer-Glo, 5 days); assay type: cell-based; settings: Homo sapiens, SW1271, 120 h; SW-1271, 5 days
Text: (§1) This assay was used to study the effect of PARP-1 inhibitor alone for tumor suppression. Breast cancer susceptibility genes BRCA1 and BRCA2 play an important role in homologous recombination DNA repair. BRCA-mutant (or deficient) cells represent homologous recombination repair defect, if PARP-mediated DNA repair is inhibited at the same time, DNA damage in cells may be increased, resulting in chromatin abnormality or even cell death.
(§2) BRCA-mutant (or deficient) human prostatic cancer cell line DU-145, lung adenocarcinoma cell line SW-1271, as well as breast cancer cell lines MDA-MB-436 and MDA-MB-361 were selected for the assay, PARP inhibitor was used alone to evaluate its damage effect on cells. The inhibition effect of the compound was expressed by IC50.
(§3) Prostatic cancer cell line DU-145 grown in EMEM supplement with 10% FBS was seeded in 96 well tissue culture plates (2000 cells/well). Lung adenocarcinoma cell line SW-1271 grown in L15 supplement with 10% FBS was seeded in 96 well tissue culture plates (4000 cells/well), and breast cancer cell line MDA-MB-361 grown in L15 supplement with 20% FBS was seeded in 96 well tissue culture plates (4000 cells/well). Test compounds (10 mM stock solution in DMSO) and reference compound staurosporine (1 mM stock solution in DMSO) were diluted by DMSO for 200 times to obtain the desired final concentration. 0.5 ul compound dilutions were directly added to the cells in 96 well plates, and the cells were incubated at 37° C. for 5 days. HPE control wells were added 1 uM staurosporine dilution, while ZPE wells were added 0.5% DMSO. After 5 days plates were equilibrated to room temperature and 50 ul of Cell Titer-Glo Reagent (Promega) was added to the culture wells. The plates were agitated briefly and luminescence signal was measured with Envision (PerkinElmer). […] IC50 values were calculated with Prism software (Graph Pad, San Diego, Calif., USA) for both test compounds and reference compound staurosporine.

[2] = tested on: breast cancer cell line MDA-MB-361; test: Cell proliferation inhibition assay, MDA-MB-361 (Cell Titer-Glo, 5 days); assay type: cell-based; settings: Homo sapiens, 120 h; MDA-MB-361, 5 days; read-out: IC50 MD-MBA-361
Text: as §1, §2, §3

[3] = tested on: prostatic cancer cell line DU-145; test: Cell proliferation inhibition assay, DU-145 (Cell Titer-Glo, 5 days); assay type: cell-based; settings: Homo sapiens, 120 h; DU-145, 5 days
[4] = Pharmacokinetic test in male SD rats, tail vein injection; assay type: in vivo, rat; settings: for AUC(0-t) / MRT / clearance / half-life / Vd: rat, plasma, iv, 15 mg/kg tail vein injection; for Vd: read-out: Vdss
Protocol: Male SD rats were used as experimental animals in this test. […] LC-MS/MS method was used to test blood drug concentration, and Winnonlin 6.1 software was used to calculate pharmacokinetic parameters to study and evaluate the pharmacokinetic properties.
12 male SD rats weighed 180-260 g, purchased from Vital River Laboratory Animal Technology Co., Ltd.
0.2 mL blood was collected through jugular vein before dosing and at 5 min, 15 min, 30 min, 1 h, 2 h, 4 h, 8 h, 12 h and 24 h after the dosing, respectively, and put into heparinized tubes. The samples were centrifuged for 10 min at 5500 rpm to separate plasma, and stored at −30° C.
(§4) An aliquot of 20 μL of plasma sample was added with 200 μL acetonitrile (containing 5.00 ng/mL verapamil and 50.0 ng/mL glibenclamide as internal standards). The mixture was vortexed for 4 min, and then centrifuged at 3700 rpm for 18 min. An aliquot of 70 μL supernatant was added into 70 μL water, and then vortexed for 4 min. Finally, 10 μL of the mixture was injected into the LC-MS/MS system for analysis.
as §4, with “30” for “20”, “150” for “200”, “5” for “4”
Winnonlin 6.1 software was used to calculate pharmacokinetic parameters.

[5] = tested on: mice following a two hour occlusion of the MCA; settings: intracerebroventricular administration; cited from earlier work
[6] = Solubility test (thermodynamic solubility in pH 7.4 phosphate buffer, HPLC); assay type: physicochemical
Protocol: In this test, excess amount of test sample was added into pH=7.4 phosphate buffer. Ultrasonic was performed for 30 min until the drug no longer dissolved. The solution was continuously shaked for 24 hours at a constant temperature of 25° C. to achieve a thermodynamic equilibrium of compound, and then the solution was filtrated to get filtrate. Quantitative analysis of compound in filtrate using external standard method is performed according to “Appendix VD High Performance Liquid Chromatography, Part II of Pharmacopeia 2010,” and the sample thermohynamic solubility in pH=7.4 phosphate buffer was determined.
Agilent 1200 LC, Phenomen C18 column (4.6 mm*150 mm, […]), mobile phase: methanol:water (60:40), flow rate: 1 mL/min, column temperature: 25° C., wave length: 230 nm, injection volume: 10 μL
About 30 mg test compound was put in a 10 mL volumetric flask, about 8 mL pH=7.4 phosphate buffer was added and ultrasonic was performed for 30 min, and the solution was shaked for 24 hours in a shaker at a constant temperature of 25° C. The solution was settled for half an hour under 25° C., filtered with 0.45 μm hydrophilic filter. The filtrate was used as test sample. […]
The test solution was injected for three times according to the above chromatographic conditions. The peak area was measured to calculate the corresponding concentration. […]

[7] = tested on: rat model of focal cerebral ischemia; settings: i.p. 10 mg/kg two hours prior to and two hours after initiation of ischemia; cited from earlier work

IC50 [1]: 1500 nM | IC50 [2]: 2400 nM | IC50 [3]: 3700 nM
SMILES: O=C(c1cc(Oc2n[nH]c(=O)c3ccccc23)ccc1F)N1CCN(C(=O)N2CCCCC2)CC1 [Compound 85, 4-(4-fluoro-3-(4-(piperidine-1-carbonyl)piperazine-1-carbonyl)phenoxy)-2H-phthalazin-1-one]

IC50 [1]: 770 nM | IC50 [2]: 1900 nM
SMILES: O=C(c1cc(Oc2n[nH]c(=O)c3ccccc23)ccc1F)N1CCN(C(=O)C2CCC(F)(F)CC2)CC1 [Compound 107, 4-(3-(4-(4,4-difluorocyclohexanecarbonyl)piperazine-1-carbonyl)-4-fluorophenoxy)2H-phthalazin-1-one]

IC50 [1]: 1600 nM | water solubility relative to AZD-2281 [6]: enhanced by almost twice | IC50 [3]: 2700 nM | pharmacokinetic properties relative to AZD-2281 ([4]; 15 mg/kg i.v.): significantly superior to AZD-2281 | AUC(0-t) [4]: 10100 ng·h/mL | MRT [4]: 22.4 min | clearance [4]: 28 mL/min/kg | half-life [4]: 185 min | Vd [4]: 0.665 L/kg
SMILES: CN(C)C1(C(=O)N2CCN(C(=O)c3cc(Oc4n[nH]c(=O)c5ccccc45)ccc3F)CC2)CC1 [Compound 124, 4-(3-(4-(1-(dimethylamino)cyclopropanecarbonyl)piperazine-1-carbonyl)-4-fluorophenoxy)2H-phthalazin-1-one]

IC50 [1]: 1100 nM | IC50 [2]: 4000 nM | IC50 [3]: 1900 nM
SMILES: CN(C)C1(C(=O)N2CCN(C(=O)c3cc(Oc4n[nH]c(=O)c5ccccc45)ccc3F)CC2)CCC1 [Compound 126, 4-(3-(4-(1-(dimethylamino)cyclobutanecarbonyl)piperazine-1-carbonyl)-4-fluorophenoxy)2H-phthalazin-1-one]

The remaining lines, values behind:

SMILES: O=C(c1cc(Cc2n[nH]c(=O)c3ccccc23)ccc1F)N1CCN(C(=O)C2CC2)CC1 [AZD-2281, olaparib]
IC50 [1]: 17400 nM | IC50 [2]: > 10000 nM | IC50 [3]: 65000 nM | exposure ([4]; 15 mg/kg i.v.): low exposure | metabolic stability ([4]; 15 mg/kg i.v.): poor metabolic stability | AUC(0-t) [4]: 6440 ng·h/mL | MRT [4]: 19.8 min | clearance [4]: 39.1 mL/min/kg | half-life [4]: 40.9 min | Vd [4]: 0.766 L/kg

SMILES: NC(=O)c1cccc(N)c1 [Compound 3-AB, 3-aminobenzamide]
decrease in infarct volume [5]: 47%

SMILES: O=C1NCCc2c(OCCCCN3CCCCC3)cccc21 [DPQ, 3,4-dihydro-5-[4-(1-piperidinyl)butoxy]-1 (2H)-isoquinolinone]
reduction in infarct volume [7]: 54%
